Source: patent US20260092054A1, “FUSED RING COMPOUND AND PHARMACEUTICAL CONTAINING SAME” (KAKEN PHARMACEUTICAL CO., LTD., priority 2022, published 2026)

What was measured:
human STAT6/pIL-4Rα = target: T1, human STAT6/pIL-4Rα (Homo sapiens, UniProt P42226); test: Binding inhibitory activity between human STAT6/pIL-4Rα by fluorescence polarization method; details: rhSTAT6 (123-658) / FAM-pIL-4Rα peptide
T1 construct: histidine tag
T1 sequence (P42226 123-658): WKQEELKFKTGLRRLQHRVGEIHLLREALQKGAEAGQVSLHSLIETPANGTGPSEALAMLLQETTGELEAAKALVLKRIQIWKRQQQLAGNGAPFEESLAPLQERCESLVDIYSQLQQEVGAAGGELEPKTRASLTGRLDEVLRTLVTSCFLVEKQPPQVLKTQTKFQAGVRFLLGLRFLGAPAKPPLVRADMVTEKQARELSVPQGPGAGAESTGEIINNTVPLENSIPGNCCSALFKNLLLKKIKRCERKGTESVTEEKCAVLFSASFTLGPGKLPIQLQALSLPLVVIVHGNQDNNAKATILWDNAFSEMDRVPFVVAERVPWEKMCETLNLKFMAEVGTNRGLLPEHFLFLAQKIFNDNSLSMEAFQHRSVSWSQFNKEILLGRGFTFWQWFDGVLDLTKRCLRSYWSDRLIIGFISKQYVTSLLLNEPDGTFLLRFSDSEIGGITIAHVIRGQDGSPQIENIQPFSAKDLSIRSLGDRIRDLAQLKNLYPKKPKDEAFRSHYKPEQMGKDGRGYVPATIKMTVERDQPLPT
Description: Test Example 1: Measurement of Binding Inhibitory Activity Between Human STAT6/pIL-p 4Rα by Fluorescence Polarization Method
1) Construction of Histidine Tag-Fused Recombinant Human STAT6 (123 to 658 Region)
A histidine tag-fused recombinant human STAT6 (hereinafter referred to as rhSTAT6) expression vector [plasmid DNA in which a nucleic acid sequence containing human STAT6 (123-658 region) was inserted into a pET28a(+) vector (Novagen)] was inserted into E. coli, and the cells were cultured overnight under culturing conditions at 17° C. with IPTG treatment. After disrupting E. coli with a high-pressure homogenizer (EmulsiFlex-C3, manufactured by AVESTIN, Inc.), affinity purification using Ni-NTA agarose (manufactured by Qiagen), cation exchange chromatography using HiTrap® CM-FF (manufactured by GE healthcare), and gel filtration chromatography using Superdex® 200 10/300GL (manufactured by GE healthcare) were performed to obtain rhSTAT6.
2) Measurement of Binding Inhibitory Activity Between Human STAT6/pIL-4Rα by Fluorescence Polarization Method
A DMSO solution of the example compound was diluted with an assay buffer [for example, a buffer containing 50 mmol/L NaCl, 10 mmol/L HEPES (pH 7.0), 1 mmol/L DTT, 1 mmol/L EDTA, and 0.01 vol % NP-40, and the like] to prepare a compound-added solution. The DMSO concentration in the compound addition solution was adjusted to 1 or 2 vol %. 10 μL of the compound addition solution and an assay buffer containing 1 or 2 vol % DMSO were added to each well of a 384-well plate. 5 μL of an assay buffer solution containing rhSTAT6 (rhSTAT6 concentration: for example, 1 μmol/L) or an assay buffer was added to each well of a 384-well plate. After leaving the plate at room temperature for 30 minutes in the dark, 5 μL of an assay buffer solution (FAM-pIL-4Rp concentration: for example, 80 nmol/L) containing FAM-labeled phosphorylated IL-4Rα peptide (sequence: FAM-Ala-pTyr-Lys-Pro-Phe-Gln-Asp-Leu-IIe-NH2) (hereinafter, FAM-pIL-4Rp) or an assay buffer containing 2 vol % DMSO was added to each well of the 384-well plate. The mixture was left to stand at room temperature for 30 minutes in the dark, and then centrifuged (200 g, 1 minute, room temperature). Fluorescence polarization values were measured using Infinite (registered trademark) F500 (manufactured by Tecan Japan Co., Ltd.) (Excitation: 485 nm, Emission: 535 nm). The inhibition rate of each Example compound was calculated according to the following formula using the fluorescence polarization value (A) when rhSTAT6 and FAM-pIL-4Rp were added without adding the Example compound, the fluorescence polarization value (B) when FAM-pIL-4Rp was added without adding the Example compound and rhSTAT6, and the fluorescence polarization value (C) when each Example compound, rhSTAT6, and FAM-pIL-4Rp were added.
In the evaluation of each example compound, the 50% inhibitory concentration (IC50) of each example compound was calculated from a linear function equation of a straight line connecting two points sandwiching 50%.

human STAT6 = test: Human STAT6 dependent reporter activity (IL-4 stimulated STAT6 reporter assay using STAT6-HEK293 cells); assay type: cell-based; details: Homo sapiens, IL-4 stimulation, luciferase activity, read-out: Inhibition rate (%); for inhibition at 0.1 µM: compound 0.1 μmol/L; for inhibition at 1 µM: compound 1 μmol/L
Description: Test Example 2: Measurement of Human STAT6 Dependent Reporter Activity
1) Construction of Human STAT6-HEK293 Cells
HEK 293 cells maintenance cultured by [Penicillin-Streptomycin (Thermo Fisher Scientific) and FBS, 1 vol % and 10 vol % respectively added to DMEM high glucose (Thermo Fisher Scientific)](manufactured by ATCC) were collected, and suspended in 10 mL of 0.5% BSA/PBS. 1×10^6 cells were collected, the supernatant was removed by centrifuging, and the cells were suspended in 100 μL of Nucleofector solution V (manufactured by Lonza K.K.). 2 μg of STAT6 vector [plasmid DNAs incorporating human STAT6 sequences in pcDNA3.1 (Invitrogen)] was added, and the STAT6 vector was introduced into the HEK293 cells using the program Q-001 initially registered in the Nucleofector®2b. A cell line (STAT6-HEK293 cells) consistently expressing STAT6 was acquired by selecting resistant cells in a medium containing Geneticin® (manufactured by Thermo Fisher Scientific). 2) STAT6 reporter assay using STAT6-HEK293 cells 3×10^6 STAT6-HEK293 cells maintained in assay medium [culture medium supplemented with 1 vol % Geneticin®] were harvested and seeded in a 10 cm dish. 3 μg of a STAT6 reporter vector [plasmid in which a sequence containing a STAT6 binding sequence and a C/EBP binding sequence in tandem was incorporated into pGL4.27 (manufactured by Promega Corporation)] and 9 μL of FuGENE® HD transfection reagent (manufactured by Promega Corporation) were added to 500 μL of Opti-MEM® (manufactured by Thermo Fisher Scientific) to prepare transfection solutions. The transfection solution was vortexed and left to stand for about 5 minutes, then added dropwise to the STAT6-HEK293 cells, which were then cultured overnight in a C02 incubator to produce STAT6 reporter cells.
The prepared STAT6 reporter cells were seeded on B&W isoplate-96 TC (PerkinElmer Japan Co., Ltd.) (3×10^4 cells/50 μL/well) and cultured overnight in a C02 incubator (37° C., 5% C02). 50 μL of assay medium was added to each well instead of the STAT6 reporter cells. The compound addition solution was prepared by diluting the DMSO solution of the example compound 250-fold using the assay medium. 20 μL of compound addition solution or 0.4 vol % DMSO-containing assay medium was added to the plate, and the plate was then cultured in a CO2 incubator for 1 hour. 10 μL of 80 ng/mL human IL-4 solution (Peprotech) or assay medium was added to each well, and the cells were cultured in a CO2 incubator for 6 hours.
STAT6 reporter activity was measured using the Bright-Glo® Luciferase Assay System (Promega). 100 μL of Bright-Glo® reagent was added to each well, and luciferase activity was measured using Infinite® F500. The inhibition rate of each Example compound was calculated by the following formula using the luciferase activity value (G) when no Example compound was added and stimulation with IL-4 was performed, the luciferase activity value (H) when no Example compound was added and stimulation with IL-4 was not performed, and the luciferase activity value (I) when each Example compound was treated and stimulation with IL-4 was performed.
Note that the viable cell rate under each condition was 70% or more, and it was determined that the luciferase activity inhibitory activity of each example compound was appropriately evaluated.

Compound | IC50 (human STAT6/pIL-4Rα) [nM] | inhibition at 0.1 µM (human STAT6) [%] | inhibition at 1 µM (human STAT6) [%]
CCn1c(-c2ccc(N3C(=O)C(C)CC3C)cc2)nc2cc(C(F)(F)F)cc(C(=O)Nc3cccc(C(N)=O)c3)c21 (single isomer, unassigned) [Ex. 13] | 9090 |  | 
CCn1c(-c2ccc(N3C(=O)C(C)CC3C)cc2)nc2cc(C(F)(F)F)cc(C(=O)Nc3cccc(C(N)=O)c3F)c21 (single isomer, unassigned) [Ex. 220] | 9600 |  | 
CC1CC(C)N(c2ccc(-c3cc4ccnc(C(=O)Nc5ccc(F)c(C(N)=O)c5)c4n3CC3(C#N)CC3)cc2)C1=O (single isomer, unassigned) [Ex. 222] | 3100 |  | 
CC1CC(C)N(c2ccc(-c3cc4ccnc(C(=O)Nc5cccc(C(N)=O)c5F)c4n3CC3(C#N)CC3)cc2)C1=O (single isomer, unassigned) [Ex. 224] | 1590 |  | 
CCn1c(-c2ccc3c(c2)CCN(C(C)=O)C3)nc2cc(C(F)(F)F)cc(C(=O)Nc3cccc(C(N)=O)c3)c21 [Ex. 3] | 2280 |  | 
CCn1c(-c2ccc(-c3ncon3)cc2)nc2cc(Br)cc(C(=O)Nc3cccc(C(N)=O)c3)c21 [Ex. 7] |  | 1 | 56
CCn1c(-c2ccc(-n3ccccc3=O)cc2)nc2cc(C(F)(F)F)cc(C(=O)Nc3cccc(C(N)=O)c3C)c21 [Ex. 10] | 3260 |  | 
CCn1c(-c2ccc3c(c2)CCOC3C(N)=O)cc2ccnc(C(=O)Nc3ccc(F)c(C(N)=O)c3)c21 (stereo not drawn) [Ex. 28] |  | 43 | 93
COCCn1c(-c2ccc3c(c2)CCOC3C(=O)O)nc2cc(C(F)(F)F)cc(C(=O)Nc3cccc(C(N)=O)c3)c21 (stereo not drawn) [Ex. 29] | 840 |  | 
COCCn1c(-c2ccc3c(c2)CCOC3C(N)=O)nc2cc(C(F)(F)F)cc(C(=O)Nc3cccc(C(N)=O)c3)c21 (stereo not drawn) [Ex. 36] | 400 |  | 
COCCn1c(-c2ccc(-n3c(C)nn(C)c3=O)cc2)cc2cc(C(F)(F)F)cc(C(=O)Nc3ccc(F)cc3)c21 [Ex. 53] | 3970 |  | 
COCCn1c(-c2ccc(-n3c(C)nn(C)c3=O)cc2)cc2cc(C(F)(F)F)cc(C(=O)Nc3ccncc3)c21 [Ex. 54] | 3390 |  | 
Cc1nn(C)c(=O)n1-c1ccc(-c2cc3cc(C(F)(F)F)cc(C(=O)Nc4ccc(F)c(C(N)=O)c4)c3n2C)cc1 [Ex. 55] | 2570 |  | 
CCn1c(-c2ccc(-n3c(C)nn(C)c3=O)cc2)cc2cccc(C(=O)Nc3cccc(C(N)=O)c3F)c21 [Ex. 58] | 550 |  | 
CCn1c(-c2ccc(-n3c(C)nn(C)c3=O)cc2)cc2cc(F)cc(C(=O)Nc3cccc(C(N)=O)c3F)c21 [Ex. 60] | 470 |  | 
COCCn1c(-c2ccc(-n3c(C)nn(C)c3=O)cc2)cc2cc(C(F)(F)F)cc(C(=O)Nc3cccc(S(N)(=O)=O)c3)c21 [Ex. 63] | 2530 |  | 
CCn1c(-c2ccc(-n3cnn(C)c3=O)cn2)cc2cc(C(F)(F)F)cc(C(=O)Nc3ccc(F)c(C(N)=O)c3)c21 [Ex. 64] | 2620 |  | 
CCn1c(-c2ccc(N3CCCCC3=O)cc2)cc2cc(C(F)(F)F)cc(C(=O)Nc3ccc(F)c(C(N)=O)c3)c21 [Ex. 71] | 1180 |  | 
COCCn1c(-c2ccc(-n3c(C)nn(C)c3=O)cc2)cc2cc(C(F)(F)F)cc(C(=O)Nc3nncs3)c21 [Ex. 79] | 1900 |  | 
COCCn1c(-c2ccc(-n3c(C)nn(C)c3=O)cc2)cc2cc(C(F)(F)F)cc(C(=O)Nc3cc[nH]n3)c21 [Ex. 81] | 2270 |  | 
CCn1c(-c2ccc(-n3c(C)nn(C)c3=O)cc2)cc2ccnc(C(=O)Nc3cccc(C(N)=O)c3)c21 [Ex. 82] | 1140 |  | 
COCCn1c(-c2ccc(-n3c(C)nn(C)c3=O)cc2)cc2cc(C(F)(F)F)cc(C(=O)Nc3cncs3)c21 [Ex. 86] | 1780 |  | 
COCCn1c(-c2ccc(-n3c(C)nn(C)c3=O)cc2)cc2cc(C(F)(F)F)cc(C(=O)Nc3cccnn3)c21 [Ex. 87] | 1000 |  | 
Cc1nn(C)c(=O)n1-c1ccc(-c2cc3ccnc(C(=O)Nc4cccc(C(N)=O)c4F)c3n2CC2CC2)cc1 [Ex. 89] | 940 |  | 
CCn1c(-c2ccc(-n3c(C)nn(C)c3=O)cc2)cc2cc(C(F)(F)F)nc(C(=O)Nc3cccc(C(N)=O)c3)c21 [Ex. 96] | 1890 |  | 
CCn1c(-c2ccc(-n3c(C)nn(C)c3=O)cc2)cc2cc(C(F)(F)F)cc(C(=O)Nc3ccc4c(c3)NC(=O)C4)c21 [Ex. 101] | 4060 |  | 
CCn1c(-c2ccc(-n3c(C)nn(C)c3=O)cc2)cc2cc(C(F)(F)F)cc(C(=O)Nc3ccc(CC(N)=O)cc3)c21 [Ex. 103] | 2660 |  | 
CCn1c(-c2ccc(-n3c(C)nn(C)c3=O)cc2)cc2cc(C(F)(F)F)cc(C(=O)Nc3ccc(CC(=O)NC)cc3)c21 [Ex. 104] | 730 |  | 
